Measurements as given in patent US11628159B2, “Cell-protective compounds and their use” (ETH ZURICH, priority 2017, dated 2023).
Entries after “also recorded” stand apart in the source; their conditions may differ. Like-named read-outs stand apart in the source and are kept apart here.

T1: GRK2 (Homo sapiens, UniProt P25098)
T1 construct: fused on or other part: hexahistidine tag
T1 sequence (P25098 1-669 limits assumed): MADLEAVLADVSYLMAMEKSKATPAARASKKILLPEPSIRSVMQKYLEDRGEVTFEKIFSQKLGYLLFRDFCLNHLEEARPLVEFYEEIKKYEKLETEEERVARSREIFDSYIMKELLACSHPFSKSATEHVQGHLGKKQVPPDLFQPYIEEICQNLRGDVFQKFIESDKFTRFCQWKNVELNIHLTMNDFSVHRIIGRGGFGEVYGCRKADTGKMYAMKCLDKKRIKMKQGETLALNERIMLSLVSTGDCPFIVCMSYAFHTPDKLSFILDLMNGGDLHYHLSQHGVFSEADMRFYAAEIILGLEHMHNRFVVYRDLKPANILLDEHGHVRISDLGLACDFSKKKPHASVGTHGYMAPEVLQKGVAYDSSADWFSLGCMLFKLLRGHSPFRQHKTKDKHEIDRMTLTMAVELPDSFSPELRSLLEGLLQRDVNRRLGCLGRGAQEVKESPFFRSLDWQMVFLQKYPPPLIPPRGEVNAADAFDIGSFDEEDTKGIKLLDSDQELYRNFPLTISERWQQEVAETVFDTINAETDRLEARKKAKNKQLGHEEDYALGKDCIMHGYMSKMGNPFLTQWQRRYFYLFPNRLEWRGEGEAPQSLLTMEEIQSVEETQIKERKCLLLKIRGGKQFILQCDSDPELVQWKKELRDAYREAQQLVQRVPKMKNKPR

B1: RKIP: raf kinase inhibitor protein, a dual-specific GRK2 and Raf kinase inhibitor (protein, UniProt P30086 2-187, looked up)
Phosphatidylethanolamine-bindi …: PVDLSKWSGPLSLQEVDEQPQHPLHVTYAGAAVDELGKVLTPTQVKNRPTSISWDGLDSGKLYTLVLTDPDAPSRKDPKYREWHHFLVVNMKGNDISSGTVLSDYVGSGPPKGTGLHRYVWLVYEQDRPLKCDEPILSNRSGDHRGKFKVASFRKKYELRAPVAGTCYQAEWDDYVPKLYEQLSGK

Key:
B6 mice with AAC = assay: Chronic pressure overload (AAC) model of heart failure, oral treatment for 2 months; type: in vivo, mouse; details: for left ventricular ejection fraction: B6 mice, oral 2 months, Compound-1 3 mg/kg/d, Compound-4 5 mg/kg/d, untreated AAC 28.6%±3.5%, ±s.d., n=5
Experimental: A, The left ventricular ejection fraction was determined in 6 month-old male B6 mice with chronic pressure overload imposed by 3 months of AAC and oral treatment with Compound-1 (AAC+compd-1) and Compound-4 (AAC+compd-4) relative to untreated AAC controls. Treatment was started one month after AAC induction and was continued for 2 months. Only mice with heart failure (ejection fraction <34% after one month of AAC) were included in the study (±s.d., n=5/group, ***p=0.0006, **p=0.0051 vs. untreated AAC; Dunnett's multiple comparison test).
We investigated whether the new small molecule GRK2 inhibitors, Compound-1 (1-(1,3-benzodioxol-5-yl)-4-(cyclopropanecarbonyl)-3-hydroxy-2-phenyl-2H-pyrrol-5-one)) and Compound-4 (4-(1,3-benzodioxol-5-yl)pyrimidine) could retard symptoms of heart failure in a chronic pressure overload model of heart failure imposed by abdominal aortic constriction (AAC). Compound-1 (3 mg/kg/d) and Compound-4 (5 mg/kg/d) were applied orally in the AAC-induced model of heart failure. Oral treatment with Compound-1 and Compound-4 was initiated in B6 mice with symptoms of heart failure (left ventricular ejection fraction <34%) induced by four weeks of AAC.
Chronic pressure overload imposed by abdominal aortic constriction (AAC) was used as an experimental model to induce cardiac hypertrophy and signs of heart failure. Aortic constriction of the abdominal aorta was performed in tribromoethanol-anesthetized 8-12 week-old transgenic mice or non-transgenic B6 controls as described (AbdAlla S, et al., Cardiovasc. Hematological Agents Med. Chem. 9, 190-206 (2011)). The abdominal aorta was constricted above the suprarenal artery by tying a 7-0 silk suture ligature against a blunt 26-gauge needle. Age-matched controls underwent identical surgical procedure except for ligation of the aorta (sham-operated mice).

GRK2 = molecular target: T1, GRK2; assay: In vitro phosphorylation assay: GRK2-mediated phosphorylation of SRSF1 with purified proteins; type: biochemical; details: for IC50: purified proteins
Experimental: The GRK2-mediated phosphorylation of SRSF1 was determined with purified proteins in the presence of increasing concentrations of paroxetine or different small molecule compounds. SRSF1 phosphorylation is presented as % of control, which is the SRSF1 phosphorylation in the absence of inhibitor.
Recombinant human GRK2 protein and GRK2-S670A protein was expressed in and purified from Spodoptera frugiperda (Sf9) cells by the baculoviral expression system. […] Sf9 cells were infected with recombinant baculoviruses at an MOI of 2-3, 48 h after infection cells were harvested by centrifugation, lysed with lysis buffer (300 mM NaCl, 50 mM HEPES, pH 7.5 supplemented with 1% NP40, 1 mM PMSF and protease inhibitor cocktail) and applied to Ni-NTA chromatography. After overnight incubation at 4° C., unbound proteins were removed by washing with lysis buffer (20× column volumes) followed by 1× column volume of 30 mM imidazole-containing lysis buffer. Bound GRK2 was eluted by 300 mM imidazole in lysis buffer, desalted by PD10 column chromatograpy, supplemented with 20% glycerol and stored at −80° C. for further use.
Protein-expressing bacteria were collected by centrifugation, frozen in liquid nitrogen and thawed on ice in lysis buffer (8 M urea, 300 mM NaCl, 50 mM HEPES, 10 mM imidazole, pH 7.5), which was supplemented with 2-mercaptoethanol (0.7 ml/L) freshly before use (10 ml of lysis buffer for a bacterial pellet from 200 ml of culture medium). The bacterial lysate was incubated for 1 h at room temperature, sonicated and centrifuged for 15 min at 4000×g at 4° C. The supernatant was applied to the Ni-NTA column matrix prewashed with 20 ml of lysis buffer. […] Finally, proteins were eluted with elution buffer (300 mM NaCl, 50 mM HEPES, 500 mM imidazole, pH 7.5, supplemented freshly with 0.7 ml/L 2-mercaptoethanol). Buffer of eluted proteins was exchanged to 150 mM NaCl, 50 mM HEPES (pH 7.5) by PD10 column chromatography.
Recombinant proteins were used for an in vitro phosphorylation assay with GRK2 and GRK2-S670A. […] After an incubation for 30 min at 30° C., the reaction was stopped by the addition of 5×SDS-Laemmli buffer. Proteins were separated by SDS-PAGE and subjected to autoradiography. […] After an incubation for 30-60 min at 30° C., the phosphorylation was stopped by the addition of 5 volumes of ice-cold reaction buffer. The reaction mixtures were immediately applied to glass fiber filters (GF/C, WHATMAN™, GE Healthcare Life Sciences, Glattbrugg, Switzerland). After three washing steps with 5 ml of reaction buffer, filter-bound radioactivity was determined in a β-counter.

[1] = read-out: IC50 value, inhibition of GRK2-mediated SRSF1 phosphorylation

Row | Molecule | cardiovascular disease-induced ageing (grey coloring of the hair) (B6 mice with AAC; 2 months (8 weeks) of treatment, AAC mice) | AAC-induced cardiac hypertrophy (histology) (B6 mice with AAC; 3 months AAC, 2 months oral treatment) | left ventricular ejection fraction (B6 mice with AAC; 3 months AAC) | IC50 value lower than that of paroxetine (GRK2; GRK2-mediated SRSF1 phosphorylation) | IC50 (GRK2; n=4, read-out: IC50 value, inhibition of GRK2-mediated phosphorylation of SRSF1) | IC50 (GRK2; [1]) | Inhibition of the in vitro phosphorylation of SRSF1 by GRK2 (GRK2; result in words)
1 | O=C(C1=C(O)C(c2ccccc2)N(c2ccc3c(c2)OCO3)C1=O)C1CC1 (stereo not drawn) [Compound-1, 1-(1,3-benzodioxol-5-yl)-4-(cyclopropane-carbonyl)-3-hydroxy-2-phenyl-2H-pyrrol-5-one] | substantially retarded | retards; also recorded: decrease | 41.4±4.8% | more than 5 fold | 450 nM | 450 nM | 
2 | c1cc(-c2ccc3c(c2)OCO3)ncn1 [Compound-4, 4-(1,3-benzodioxol-5-yl)pyrimidine] |  |  | 38.2±3.7% |  |  | 1870 nM | 
3 | B1 |  |  |  |  |  |  | does not inhibit; also recorded: did not inhibit
